Test results from patent US11331360B2, “Commiphora molmol (myrrh) resin extracts and uses thereof for wound healing and treatment and prevention of mucositis and other diseases” (Umayana LLC, priority 2018, dated 2022).

System: oral mucositis
Test: Treatment of oral mucositis in cancer subjects (case examples 2-6)
Assay type: in vivo, human
Details: grade IV mucositis, listed agents used with cryotherapy
Experimental: The efficacy and safety of the compositions comprising the disclosed acidic extract of myrrh resin were clinically assessed for prevention, treatment and/or improvement of oral and gastrointestinal mucositis.
In place of prophylactic incubation, the subject began using the composition comprising the disclosed acidic extract of myrrh resin in the form of gel four times a day.
(§1) The subject began using the composition comprising the disclosed acidic extract of myrrh resin in the form of gel four times a day.
G: oral examination performed on the second day of treatment. H: oral examination performed on the third day of treatment. I: oral examination performed on the fourth day of treatment.
as §1
D, E and F: oral examination performed on the first day of treatment. G, H, I and J: oral examination performed on the third day of treatment. K, L and M: oral examination performed on the fifth day of treatment.
B: oral examination performed on the first day of treatment. C: oral examination performed on the second day of treatment. D: oral examination performed on the third day of treatment. E: oral examination performed on the fourth day of treatment.

[1] = Example 2: Hodgkin's Lymphoma, high dose chemotherapy
[2] = Example 4: pancreatic adenocarcinoma, chemotherapy
[3] = Example 5: Larynx CA, induction chemotherapy
[4] = Example 6: larynx malignant neoplasma, radiation therapy

## N=C(NCCCCCCNC(=N)NC(=N)Nc1ccc(Cl)cc1)NC(=N)Nc1ccc(Cl)cc1.O=C(O)[C@H](O)[C@@H](O)[C@H](O)[C@H](O)CO.O=C(O)[C@H](O)[C@@H](O)[C@H](O)[C@H](O)CO [chlorhexidine gluconate]
[1]
  effect of earlier treatment of the oral lesions: not effective
[2]
  effect of earlier treatment of the oral lesions: mild decrease in mucositis
[3]
  effect of earlier treatment of the oral lesions: mild decrease in mucositis
[4]
  effect of earlier treatment of the oral lesions: not effective

## O=C([O-])O.[Na+] [sodium bicarbonate]
[1]
  effect of earlier treatment of the oral lesions: not effective
[2]
  effect of earlier treatment of the oral lesions: mild decrease in mucositis
[3]
  effect of earlier treatment of the oral lesions: mild decrease in mucositis
[4]
  effect of earlier treatment of the oral lesions: not effective
